Values of other authors in paper PMC8344021, “Discovery of Small Molecule Bak Activator for Lung Cancer Therapy” (Theranostics, 2021).

Experiments:
[1] = tested on: chronic lymphocytic leukemia (CLL); set-up: method as in PMID 29562156, PMID 31205643; conditions: venetoclax monotherapy or venetoclax/rituximab combination; ref [11], [12]; cited from earlier work
SCLC = tested on: SCLC; set-up: method as in PMID 21282543, PMID 22496272; conditions: single-agent, SCLC patients; ref [16], [17]; cited from earlier work

Compound | proportion of patients who develop venetoclax failure [1] | clinical efficacy (SCLC)
CC1(C)CCC(CN2CCN(c3ccc(C(=O)NS(=O)(=O)c4ccc(NCC5CCOCC5)c([N+](=O)[O-])c4)c(Oc4cnc5[nH]ccc5c4)c3)CC2)=C(c2ccc(Cl)cc2)C1 [venetoclax] | 15-25% | 
CC1(C)CCC(c2ccc(Cl)cc2)=C(CN2CCN(c3ccc(C(=O)NS(=O)(=O)c4ccc(N[C@H](CCN5CCOCC5)CSc5ccccc5)c(S(=O)(=O)C(F)(F)F)c4)cc3)CC2)C1 [navitoclax] |  | limited efficacy
